The structures appear in SMILES notation.

This data set is described as follows: Particle size analysis under a microscope (400x magnification). The class given is physicochemical. Conditions: mixing liquid petrolatum at 60° C. with micronized SeS2, 400× microscope magnification. The method, then: FIG. 4 illustrates SeS2 formulation obtained mixing liquid petrolatum at a temperature of 60° C. with micronized SeS2 at 400× microscope magnification showing the presence of SeS2 particles larger than 25 microns.
FIG. 3 illustrates a 1% SeS2 (w/w) formulation obtained using the low temperature process.
The active ingredient was SeS2, wherein the particle size distribution D90 is less than 10 microns. The base medium was USP grade petrolatum. A reaction vessel capable of accepting a high shear mixing apparatus was charged with the USP grade petrolatum. In order to create uniform particles distribution in the petrolatum, high shear mixing was applied to disperse the particles. Addition of the active ingredients to the bulk while the whole bulk is agitated is essential in order to properly disperse the active ingredient, the high shear head was used to break the agglomerates to primary particles creating a uniform and homogeneous paste.

`S=[Se]=S` [SeS2, selenium disulfide]: the SeS2 particle size entry is “over 25 microns”.

These data come from patent US12527817B2, “Manufacturing of selenium disulfide compositions” (Azura Ophthalmics Ltd., priority 2020, dated 2026).
